From PubChem BioAssay AID820 (PCMD, 2007)
Records with an inconclusive call do not appear. The source made the active and inactive calls. The rule behind the calls is not given here.

Target: Cathepsin B (Homo sapiens) (UniProt P07858)
Assay: CTSB inhibitor potency, confirmatory, biochemical, dose-response (AID 820)
Conditions: purified cathepsin B enzyme activity, signal read-out

SMILES	IC50
COc1cccc(Cn2c(-c3nonc3N)nc3ccccc32)c1	46 µM
O=S(=O)(/N=S1/CC=CCN1S(=O)(=O)c1ccccc1)c1ccccc1 (stereo unspecified)	9.39 µM
Nc1cc(OC(=O)c2cccs2)nn1S(=O)(=O)c1ccc(F)cc1	0.435 µM
O=C(CNC(=O)c1ccco1)OCN1C(=O)c2ccccc2C1=O	8.56 µM
COc1nc(N(C#N)CC(N)=O)nc(N2CCCC2)n1	14.2 µM
CCN(C(=O)COc1cc(=O)n(C)c2ccccc12)c1cccc(Cl)c1	> 50 µM (inactive)
Cc1ccc(S(=O)(=O)n2nc(OC(=O)c3cccs3)cc2N)cc1	1.99 µM
Nc1cc(OC(=O)c2ccco2)nn1S(=O)(=O)c1ccc(F)cc1	1.26 µM
CC(=O)OC1(C(F)(F)F)Oc2ccccc2NC1=O (stereo unspecified)	0.845 µM
COc1ccc(N(CC(=O)NCC2CCCO2)S(=O)(=O)c2c(C)noc2C)cc1 (stereo unspecified)	> 50 µM (inactive)
CCSc1ccccc1C(=O)n1nnc2ccccc21	7.11 µM
N#Cc1c(N2CCCC2)nc(N)c2c(N)nc(N3CCCC3)cc12	3.17 µM
Nc1nonc1-c1noc(N2CCCCC2)n1	> 50 µM (inactive)
CCOc1ccc(CCNC(=O)Cn2c(-c3nonc3N)nc3ccccc32)cc1OCC	> 50 µM (inactive)
CCn1nc(-c2ccccc2)nc2c(=O)n(C)c(=O)nc1-2	0.071 µM
CCn1nc(-c2cccs2)nc2c(=O)n(C)c(=O)nc1-2	0.0722 µM
Nc1cc(OC(=O)c2cccs2)nn1S(=O)(=O)c1ccccc1	0.247 µM
COc1ccc(S(=O)(=O)n2nc(OC(=O)c3cccs3)cc2N)cc1	0.692 µM
O=C1CC(c2ccco2)Cc2nc(N3CCc4ccccc4C3)ncc21 (stereo unspecified)	> 50 µM (inactive)
Nc1nonc1-c1nc2ccccc2n1Cc1ccc(F)cc1	33.9 µM
CCCCc1[nH]nc2c1C1(C(=O)N(CC)c3ccccc31)C(C#N)=C(N)O2 (stereo unspecified)	> 50 µM (inactive)

SMILES	IC50
Nc1nonc1-c1nc2ccccc2n1CC(=O)N1CCCCC1	44.6 µM
COc1ccc(S(=O)(=O)n2nc(OC(=O)c3ccccc3)cc2N)cc1	9.56 µM
CC(=O)NC(=O)NC1OC(=O)C(Cl)=C1Cl (stereo unspecified)	2.12 µM
COc1cc2c(cc1OC)-c1c(OC)c(OC)cc3c1C(C2)N(C)CC3 (stereo unspecified)	> 50 µM (inactive)
COc1ccc(C(=O)c2no[n+]([O-])c2C(=O)c2ccc(OC)cc2)cc1	11.5 µM
N#Cc1c(N)sc(=S)c2c1CCN(Cc1ccccc1)C2	1.64 µM
CCC(C)[C@@H](NC(=O)OC(C)(C)C)c1nnc(S(=O)(=O)Cc2cccc(C)c2)o1 (stereo partly specified)	2.09 µM
COC(=O)c1ccccc1NC(=O)Cn1c(-c2nonc2N)nc2ccccc21	> 50 µM (inactive)
COc1ccc(C(=O)C(OC(=O)CNC(=O)c2ccco2)c2ccccc2)cc1 (stereo unspecified)	18.3 µM
O=C(OC(C(=O)NCc1cccs1)c1ccccn1)c1cccs1 (stereo unspecified)	6.36 µM
Cn1c(=O)c2c(-c3ccccc3)n(-n3cnnc3)cc2n(C)c1=O	1.19 µM
COc1ccc(C)c(Cn2c(-c3nonc3N)nc3ccccc32)c1	37.2 µM
CCOC(=O)c1sc(=NC(=O)c2ccc(S(=O)(=O)N3CC(C)OC(C)C3)cc2)n(C)c1C (stereo unspecified)	> 50 µM (inactive)
O=C(Oc1oc(-c2ccco2)nc1C=Nc1ccccc1)c1ccco1	38.5 µM
Nc1nc2n(n1)C1(CCCCC1)C1=C(CCCC1)N2	12.9 µM
CC1=C(C)CS(=O)N(S(=O)(=O)c2ccc(Cl)cc2)C1 (stereo unspecified)	4.17 µM
COc1ccc(S(=O)(=O)n2nc(OC(=O)c3ccco3)cc2N)cc1	0.923 µM
Cc1ccc(S(=O)(=O)n2nc(OC(=O)c3ccco3)cc2N)cc1	1.75 µM
COc1ccc(S(=O)(=O)n2nc(OC(=O)c3ccc(C)cc3)cc2N)cc1	12.3 µM
